Data taken from patent US20240059689A1, “PURINE DERIVATIVES AS ANTICANCER AGENTS” (Tango Therapeutics, Inc., priority 2021, published 2024).

Key:
HCC1954 = assay: Viability assay, BRCA1 WT cell line HCC1954; format: cell-based; conditions: Homo sapiens, HCC1954, viability, read-out: HCC1954 rel IC50
Description: (§1) Table 1 also indicates IC50 values in a viability assay for a non-isogenic pair of BRCA1 mutant (column 5-MDA-MB-436) and BRCA1 WT (column 6—HCC1954) cell lines. These values indicate the effect of treatment with compound on cell survival.

USP1-UAF1 = USP1-UAF1 (Homo sapiens, UniProt O94782); assay: Ubiquitin Rhodamine assay of USP1-UAF1 activity; format: biochemical
Experimental: Certain compounds of the disclosure were assessed for USP1-UAF1 activity in a Ubiquitin Rhodamine assay as described in Biology Example 1.

monoubiquitinated PCNA = assay: AlphaLISA assay measuring monoubiquitinated PCNA in MDA-MB-436; format: cell-based; conditions: Homo sapiens, MDA-MB-436, monoubiquitinated PCNA, read-out: Alpha Lisa IC50
Description: Table 1 also indicates IC50 values for exemplary compounds in an AlphaLISA assay measuring monoubiquitinated PCNA in a BRCA1 mutant cell line (MDA-MB-436; column 7).

MDA-MB-436 = assay: Viability assay, BRCA1 mutant cell line MDA-MB-436; format: cell-based; conditions: Homo sapiens, MDA-MB-436, viability, BRCA1 mutant MDA-MB-436; read-out: MDA-MB-436 rel IC50
Description: as §1

Chain of USP1-UAF1 (O94782 whole entry): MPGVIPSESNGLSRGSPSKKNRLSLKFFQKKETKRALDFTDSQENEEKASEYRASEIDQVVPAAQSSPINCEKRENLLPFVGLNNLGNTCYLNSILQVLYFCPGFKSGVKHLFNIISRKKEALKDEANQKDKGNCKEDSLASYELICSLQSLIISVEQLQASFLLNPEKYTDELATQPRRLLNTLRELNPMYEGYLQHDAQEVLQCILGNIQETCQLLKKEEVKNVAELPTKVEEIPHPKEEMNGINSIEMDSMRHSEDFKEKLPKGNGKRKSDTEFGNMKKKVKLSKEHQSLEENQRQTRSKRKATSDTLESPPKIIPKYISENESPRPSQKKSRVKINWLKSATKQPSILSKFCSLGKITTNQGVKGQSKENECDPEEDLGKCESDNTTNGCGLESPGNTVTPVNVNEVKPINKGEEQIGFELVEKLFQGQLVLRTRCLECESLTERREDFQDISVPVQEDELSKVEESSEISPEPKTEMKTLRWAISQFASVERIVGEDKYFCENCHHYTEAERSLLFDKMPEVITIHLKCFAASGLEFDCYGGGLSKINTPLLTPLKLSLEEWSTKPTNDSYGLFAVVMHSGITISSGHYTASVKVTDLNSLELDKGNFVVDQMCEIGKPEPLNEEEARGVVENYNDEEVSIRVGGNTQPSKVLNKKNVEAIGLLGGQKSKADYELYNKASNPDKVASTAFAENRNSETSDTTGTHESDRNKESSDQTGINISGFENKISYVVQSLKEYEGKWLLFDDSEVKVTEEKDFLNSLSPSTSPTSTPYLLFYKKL
Chain of USP1-UAF1 (Q8TAF3 whole entry partner): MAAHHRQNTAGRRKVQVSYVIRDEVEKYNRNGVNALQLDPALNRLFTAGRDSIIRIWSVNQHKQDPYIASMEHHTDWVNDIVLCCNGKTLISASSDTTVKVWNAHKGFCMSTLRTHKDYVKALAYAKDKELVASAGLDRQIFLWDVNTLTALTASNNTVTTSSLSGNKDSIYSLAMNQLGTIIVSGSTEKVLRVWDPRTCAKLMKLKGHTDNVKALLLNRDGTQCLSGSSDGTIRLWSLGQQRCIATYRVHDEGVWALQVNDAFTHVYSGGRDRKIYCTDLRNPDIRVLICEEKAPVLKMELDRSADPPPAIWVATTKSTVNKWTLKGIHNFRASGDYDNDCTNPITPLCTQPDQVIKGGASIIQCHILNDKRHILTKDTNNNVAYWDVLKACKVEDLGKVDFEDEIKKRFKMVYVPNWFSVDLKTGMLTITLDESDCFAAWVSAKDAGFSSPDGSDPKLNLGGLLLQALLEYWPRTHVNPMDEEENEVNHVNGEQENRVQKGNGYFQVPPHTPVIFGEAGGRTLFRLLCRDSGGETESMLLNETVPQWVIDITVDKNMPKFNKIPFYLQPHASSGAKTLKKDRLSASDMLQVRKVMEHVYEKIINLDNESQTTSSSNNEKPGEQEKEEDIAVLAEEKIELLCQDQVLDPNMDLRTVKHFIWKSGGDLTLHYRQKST

SMILES | IC50 (HCC1954) [nM] | IC50 (USP1-UAF1) [nM] | IC50 (monoubiquitinated PCNA) [nM] | IC50 (MDA-MB-436) [nM]
CCOc1cc(C(F)(F)F)nn1-c1ccc(Cn2c(=N)n(C)c3cnc(-c4ccccc4C(C)C)nc32)cc1 [Example T-032] | 250 to 10000 | < 30 | 100 to 250 | < 100
Cn1cc(C(F)(F)F)nc1-c1ccc(Cn2c(=N)n(C)c3cnc(-c4ccccc4OC(F)(F)F)nc32)cc1 [Example T-033, 7-methyl-9-[[4-[1-methyl-4-(trifluoromethyl)imidazol-2-yl]phenyl]methyl]-2-[2-(trifluoromethoxy)phenyl]purin-8-imine] | 250 to 10000 | < 30 | < 100 | < 100
CN(C)c1ncccc1-c1ncc2c(n1)n(Cc1ccc(-c3nc(C(F)(F)F)cn3C)cc1)c(=N)n2C [Example T-034] | ≥ 10000 | 100 to 10000 | 250 to 10000 | 250 to 10000
CC(C)c1ccncc1-c1ncc2c(n1)n(Cc1ccc(-c3nc(C(F)(F)F)cn3C)cc1)c(=N)n2C [Example T-035] | ≥ 10000 | 100 to 10000 | 250 to 10000 | 250 to 10000
Cn1cc(C(F)(F)F)nc1-c1ccc(Cn2c(=N)n(C)c3cnc(-c4c(F)cccc4OC(F)F)nc32)cc1 [Example T-036, 2-[2-(difluoromethoxy)-6-fluoro-phenyl]-7-methyl-9-[[4-[1-methyl-4-(trifluoromethyl)imidazol-2-yl]phenyl]methyl]purin-8-imine] | ≥ 10000 | < 30 | < 100 | < 100
COc1ncccc1-c1ncc2c(n1)n(Cc1ccc(-c3nc(C(F)(F)F)cn3C(C)C)cc1)c(=N)n2C [Example T-037] | ≥ 10000 | 100 to 10000 | 250 to 10000 | 250 to 10000
COc1ncnc(C(F)(F)F)c1-c1ncc2c(n1)n(Cc1ccc(-c3nc(C(F)(F)F)cn3C)cc1)c(=N)n2C [Example T-038, 2-[4-methoxy-6-(trifluoromethyl)pyrimidin-5-yl]-7-methyl-9-[[4-[1-methyl-4-(trifluoromethyl)imidazol-2-yl]phenyl]methyl]purin-8-imine] | ≥ 10000 | 30 to 100 | < 100 | 100 to 250
Cn1cc(C(F)(F)F)nc1-c1ccc(Cn2c(=N)n(C)c3cnc(-c4cc(F)ccc4OC(F)F)nc32)cc1 [Example T-039, 2-[2-(difluoromethoxy)-5-fluoro-phenyl]-7-methyl-9-[[4-[1-methyl-4-(trifluoromethyl)imidazol-2-yl]phenyl]methyl]purin-8-imine] | ≥ 10000 | 30 to 100 | 250 to 10000 | 250 to 10000
Cc1cc(-c2nc(C(F)(F)F)cn2C)ccc1Cn1c(=N)n(C)c2cnc(-c3ccccc3C(C)C)nc21 [Example T-040] | ≥ 10000 | 30 to 100 | < 100 | < 100
COc1ncnc(C2CC2)c1-c1ncc2c(n1)n(Cc1cc(F)c(-c3nc(C(F)(F)F)cn3C)cc1F)c(=N)n2C [Example T-044] | ≥ 10000 | 30 to 100 | 100 to 250 | 250 to 10000
CC(C)c1ccccc1-c1ncc2c(n1)n(Cc1ccc(-c3nc(C(F)(F)F)cn3C)cc1Cl)c(=N)n2C [Example T-047] | ≥ 10000 | 30 to 100 | 100 to 250 | 250 to 10000
Cn1cc(C(F)(F)F)nc1-c1ccc(Cn2c(=N)n(CC(F)F)c3cnc(-c4ccccc4C(F)(F)F)nc32)cc1 [Example T-049] | ≥ 10000 | 30 to 100 | 250 to 10000 | 100 to 250
CC(C)n1cc(C(F)(F)F)nc1-c1ccc(Cn2c(=N)n(C)c3cnc(-c4cccnc4OC(F)F)nc32)cc1 [Example T-051, 2-[2-(difluoromethoxy)-3-pyridyl]-9-[[4-[1-isopropyl-4-(trifluoromethyl)imidazol-2-yl]phenyl]methyl]-7-methyl-purin-8-imine] | ≥ 10000 | 100 to 10000 | 250 to 10000 | 250 to 10000
COc1nsc(OC)c1-c1ncc2c(n1)n(Cc1ccc(-c3nc(C(F)(F)F)cn3C)cc1)c(=N)n2C [Example T-052] | 250 to 10000 | 30 to 100 | 100 to 250 | 100 to 250
Cn1cc(C(F)(F)F)nc1-c1ccc(Cn2c(=N)n(C)c3cnc(-c4cccnc4OC(F)(F)F)nc32)cc1 [Example T-053, 7-methyl-9-[[4-[I-methyl-4-(trifluoromethyl)imidazol-2-yl]phenyl]methyl]-2-[2-(trifluoromethoxy)-3-pyridyl]purin-8-imine] | ≥ 10000 | < 30 | 100 to 250 | < 100
CC(C)c1ccccc1-c1ncc2c(n1)n(Cc1ccc(-c3nc(C(F)(F)F)cn3C)cc1)c(=N)n2CC(F)(F)F [Example T-054] | ≥ 10000 | 30 to 100 | < 100 | < 100
